Patent US6716851B2, “Substituted 2-aryl-4-arylaminopyrimidines and analogs as activators or caspases and inducers of apoptosis and the use thereof” (Cytovia, Inc., priority 2000, dated 2004)
pEC50: −log10 of the molar value.

How the values were obtained:
[1] = tested on: T-47D cells; experiment: Caspase cascade activation (N-(Ac-DEVD)-N'-ethoxycarbonyl-R110 fluorogenic substrate) in T-47D cells; format: cell-based, Human; details: 48 h incubation; for pEC50: Homo sapiens, T47D, caspase activation potency, read-out: T47 EC50; for T47 Ratio 48 hr: caspase activity: ratio of net RFU of test compound to control
Protocol: (§1) Human breast cancer cell lines T-47D and ZR-75-1 were grown according to media component mixtures designated by American Type Culture Collection +10% FCS (Invitrogen Corporation, Life Technologies division), in a 5% CO2-95% humidity incubator at 37° C. T-47D and ZR-75-1 cells were maintained at a cell density between 50 and 80% confluency at a cell density of 0.1 to 0.6×10^6 cells/ml. Cells were harvested at 600× g and resuspended at 0.65×10^6 cells/ml into appropriate media +10% FCS. An aliquot of […] of cells was added to a well of a […] microtiter plate containing 2.5 μl of a 10% DMSO in RPMI-1640 media solution containing 0.16 to 100 μM of 4-(3-methoxyanilino)-2-(2-pyridinyl)-6-(trifluoromethyl)pyrimidine or other test compound (0.016 to 10 μM final). An aliquot of 22.5 μl of cells was added to a well of a 384-well microtiter plate containing 2.5 μl of a 10% DMSO in RPMI-1640 media solution without test compound as the control sample. The samples were mixed by agitation and then incubated at 37° C. for 48 h in a 5% CO2-95% humidity incubator. After incubation, the samples were removed from the incubator and 25 μl of a solution containing 14 μM of N-(Ac-DEVD)-N′-ethoxycarbonyl-R110 fluorogenic substrate (Cytovia, Inc.; WO99/18856), 20% sucrose (Sigma), 20 mM DTT (Sigma), 200 mM NaCl (Sigma), 40 mM Na PIPES buffer pH 7.2 (Sigma), and 500 μg/ml lysolecithin (Calbiochem) was added. The samples were mixed by agitation and incubated at room temperature. Using a fluorescent plate reader (Model SpectraMax Gemini, Molecular Devices), an initial reading (T=0) was made approximately 1-2 min after addition of the substrate solution, employing excitation at 485 nm and emission at 530 nm, to determine the background fluorescence of the control sample. After the 3 h incubation, the samples were read for fluorescence as above (T=3 h).
(§2) The Relative Fluorescence Unit values (RFU) were used to calculate the sample readings as follows:
(§3) RFU(T=3h)−Control RFU(T=0)=Net RFU(T=3h)
(§4) The activity of caspase cascade activation was determined by the ratio of the net RFU value for 4-(3-methoxyanilino)-2-(2-pyridinyl)-6-(trifluoromethyl)pyrimidine or other test compound to that of control samples. The EC50 (nM) was determined by a sigmoidal dose-response calculation (Prism 2.0, GraphPad Software Inc.).

[2] = tested on: ZR-75-1 cells; experiment: Caspase cascade activation (N-(Ac-DEVD)-N'-ethoxycarbonyl-R110 fluorogenic substrate) in ZR-75-1 cells; format: cell-based, Human; details: ZR-75-1, 48 h incubation; for pEC50: Homo sapiens, caspase activation potency; for ZR Ratio 48 hr: caspase activity: ratio of net RFU of test compound to control
Protocol: as §1, §2, §3, §4

Row | Structure (SMILES) | pEC50 [1] | T47 Ratio 48 hr [1] | pEC50 [2] | ZR Ratio 48 hr [2]
1 | COc1cccc(Nc2nc(-c3ccc(C(F)(F)F)cn3)nc(C)c2Cl)c1 [Example 15, 4-(3-Methoxyanilino)-5-chloro-6-methyl-2-[5-(trifluoromethyl)-2-pyridinyl]pyrimidine] | < 5.30 | 2.5 | < 5.30 | 2.7
2 | COc1cccc(Nc2cc(C)nc(-c3ccccn3)n2)c1 [Example 16, 4-(3-Methoxyanilino)-6-methyl-2-(2-pyridinyl)pyrimidine] | 6.54 | 19.5 | 6.53 | 3.3
3 | COc1cccc(Nc2nc(-c3ccccn3)ncc2OC)c1 [Example 18, 4-(3-Methoxyanilino)-5-methoxy-2-(2-pyridinyl)pyrimidine] | < 5.30 | 1.9 | 5.31 | 7.8
4 | COc1cccc(Nc2cc(C(F)(F)F)nc(-c3cccnc3)n2)c1 [Example 19, 4-(3-Methoxyanilino)-2-(3-pyridinyl)-6-(trifluoromethyl)pyrimidine] | 6.33 | 16.7 | 6.67 | 8.9
5 | COCc1cc(Nc2cccc(OC)c2)nc(-c2cccc(C)c2)n1 [Example 20, 4-(3-Methoxyanilino)-6-(methoxymethyl)-2-(3-methylphenyl)pyrimidine] | < 5.30 | 1.6 | < 5.30 | 1.1
6 | COc1ccc(OC)c(Nc2cc(C)nc(-c3ccccn3)n2)c1 [Example 21, 4-(2,5-Dimethoxyanilino)-6-methyl-2-(2-pyridinyl)pyrimidine] | > 6.81 | 15.5 | > 6.81 | 12.0
7 | COc1cccc(Nc2cc(C)nc(-c3ccccn3)n2)c1OC [Example 22, 4-(2,3-Dimethoxyanilino)-6-methyl-2-(2-pyridinyl)pyrimidine] | < 5.30 | 1.9 | 5.22 | 3.5
8 | COc1ccc(OC)c(Nc2cc(C(F)(F)F)nc(-c3cccnc3)n2)c1 [Example 38, 4-(2,5-Dimethoxyanilino)-2-(3-pyridinyl)-6-(trifluoromethyl)pyrimidine] | 7.72 | 8.8 | 7.16 | 12.4
9 | COc1cccc(Nc2cc(C(F)(F)F)nc(-c3ccncc3)n2)c1 [Example 41, 4-(3-Methoxyanilino)-2-(4-pyridinyl)-6-(trifluoromethyl)pyrimidine] | 6.28 | 7.5 | < 5.30 | 1.6
10 | COc1ccc(OC)c(Nc2cc(C(F)(F)F)nc(-c3cnccn3)n2)c1 [Example 76, 4-(2,5-Dimethoxyanilino)-2-(2-pyrazinyl)-6-(trifluoromethyl)pyrimidine] | > 6.82 | 8.5 |  | 
11 | COc1ccc(Cl)c(Nc2cc(C(F)(F)F)nc(-c3cnccn3)n2)c1 [Example 82, 4-(2-Chloro-5-methoxyanilino)-2-(2-pyrazinyl)-6-(trifluoromethyl)pyrimidine] | 6.60 | 15.3 |  | 
12 | Oc1ccc(Cl)c(Nc2cc(C(F)(F)F)nc(-c3cnccn3)n2)c1 [Example 194, 4-(2-Chloro-5-hydroxyanilino)-2-(2-pyrazinyl)-6-trifluoromethylpyrimidine] | 6.97 | 11.7 |  | 
13 | COc1cc(Nc2cc(C(F)(F)F)nc(-c3ccccn3)n2)cc(OC)c1 [Example 195, 4-(3,5-Dimethoxyanilino)-2-(2-pyridinyl)-6-trifluoromethylpyrimidine] | 7.70 | 8.4 |  | 
14 | Cc1ccc(C)c(Nc2cc(C(F)(F)F)nc(-c3cnccn3)n2)c1 [Example 196, 4-(2,5-Dimethylanilino)-2-(2-pyrazinyl)-6-trifluoromethylpyrimidine] | 6.28 | 11.3 |  | 
